The subject of test [1] is A/Osaka/164/2009 (O164s). Further details: species or system 2009 pandemic influenza A (H1N1) virus. Conditions: in vivo.
Test [2] concerns A/Osaka/180/2009 (O180r). Further details: species or system 2009 pandemic influenza A (H1N1) virus. To be noted: in vivo.
Test [3] concerns A/Vietnam/HCM9727/2009 (VN9727s). On the set-up: species or system 2009 pandemic influenza A (H1N1) virus. To be noted: in vivo.
In test [4] the test system is A/Vietnam/HN32060/2009 (VN32060r). On the set-up: species or system 2009 pandemic influenza A (H1N1) virus. Conditions: in vivo.
For test [5], the system named is A/Osaka/164/2009 (O164s). The test is classed as cell-based, 2009 pandemic influenza A (H1N1) virus.
For test [6], the system named is A/Osaka/180/2009 (O180r). The test is classed as cell-based, 2009 pandemic influenza A (H1N1) virus.
Test [7] has as its system A/Vietnam/HCM9727/2009 (VN9727s). The test is classed as cell-based, 2009 pandemic influenza A (H1N1) virus.
In test [8] the test system is A/Vietnam/HN32060/2009 (VN32060r). It is filed as cell-based, 2009 pandemic influenza A (H1N1) virus.

Turning to `CCOC(=O)C1=C[C@@H](OC(CC)CC)[C@H](NC(C)=O)[C@@H](N)C1` [oseltamivir, oseltamivir phosphate], the “virus titers of O164s in the lungs of mice” value with A/Osaka/164/2009 (O164s) [1] is listed as “significantly reduced”. Moreover, the “replication of O180r in the lungs of mice” value (“replication of O180r” below) with A/Osaka/180/2009 (O180r) [2] is “not inhibited”. Further, in test [3], the “virus titers of VN9727s in the lungs of mice” value is given as “significantly reduced”. The “replication of VN32060r in the lungs of mice” value (from here on “replication of VN32060r”) in test [4] is “not inhibited”.
As for `[H]/N=C(\N)N[C@H]1C=C(C(=O)O)O[C@@H]([C@H](OC)[C@H](O)COC(=O)CCCCCCC)[C@@H]1NC(C)=O` [CS-8958], in the test with A/Osaka/164/2009 (O164s) [1], the “replication of O164s in the lungs of mice” value was “significantly reduced”. The “replication of O180r” value with A/Osaka/180/2009 (O180r) [2] is given as “significantly reduced”. Besides, in test [3], the “replication of VN9727s in the lungs of mice” value is “significantly reduced”. Also, the “replication of VN32060r” value in test [4] is listed as “significantly reduced”.
On to `NC(=O)c1nc(F)c[nH]c1=O` [favipiravir, Favipiravir], for which the “replication of O164s in the lungs of mice” value in the test on A/Osaka/164/2009 (O164s) [1] is reported as “significantly reduced”. In the test with A/Osaka/180/2009 (O180r) [2], the “replication of O180r” value was “significantly reduced”. The “replication of VN9727s in the lungs of mice” value in test [3] is listed as “significantly reduced”. The “replication of VN32060r” value in test [4] is “significantly reduced”.
Regarding `CCC(CC)O[C@@H]1C=C(C(=O)O)C[C@H](N)[C@H]1NC(C)=O` [Oseltamivir carboxylate], the “growth of O164s in the presence of NA inhibitor” value with A/Osaka/164/2009 (O164s) [5] was “severely impaired”. In addition, the “growth of O180r in the presence of NA inhibitor” value in the test on A/Osaka/180/2009 (O180r) [6] was “replicated efficiently”. Further, the “growth of VN9727s in the presence of NA inhibitor” value in test [7] is “severely impaired”. The “growth of VN32060r in the presence of NA inhibitor” value in test [8] is “replicated efficiently”.
For `CC(=O)N[C@H]1[C@H]([C@H](O)[C@H](O)CO)OC(C(=O)O)=C[C@@H]1N=C(N)N` [Zanamivir], the “growth of O164s in the presence of NA inhibitor” value with A/Osaka/164/2009 (O164s) [5] is recorded as “inhibited the replication”. Further, the “growth of O180r in the presence of NA inhibitor” value with A/Osaka/180/2009 (O180r) [6] is on record as “inhibited the replication”. For the same molecule, the “growth of VN9727s in the presence of NA inhibitor” value in test [7] is reported as “inhibited the replication”. Also, in test [8], the “growth of VN32060r in the presence of NA inhibitor” value is “inhibited the replication”.

The values above are taken from publication PMC2928817 (PLoS Pathogens, 2010).
